Usually MIC stands for the lowest concentration found to suppress growth. A low value points to a more susceptible organism.

Calls of active or inactive are those of the source. The calls are words filed in the database; no cut-off is given here.

The test system of series [1] is Pseudomonas aeruginosa. Description: Synergistic antibacterial activity against Pseudomonas aeruginosa ATCC 27853 assessed as FIC after 24 hrs in presence of colistin by checkerboard assay relative to test compound MIC. The series is classed as functional.
The subject of the next series is Staphylococcus aureus. The series is described as follows: Induction of cell lysis in Staphylococcus aureus ATCC 700699 assessed as decrease in turbidity at 8 fold MIC measured after 2 hrs by photometric method. The series is classed as functional, organism-based.
Series [2] has as its system Pseudomonas aeruginosa. The series is described as follows: Antibacterial activity against Pseudomonas aeruginosa ATCC 27853 measured after 24 hrs by broth microdilution method. The series is classed as functional.
A further series deals with Escherichia coli. Description: Synergistic antimicrobial activity against Escherichia coli ATCC BAA 2469 assessed as FIC after 24 hrs in presence of colistin by checkerboard assay relative to colistin. The series is classed as functional.
In the next series the test system is HEK293. Description: Cytotoxicity against HEK293 cells assessed as reduction in cell viability at >12.5 uM measured after 48 hrs by resazurin dye based fluorescence assay. The following applies: human, hek293, 48 h. In general terms: Resazurin is reduced to fluorescent resorufin, in cell work by metabolically active cells.
Series [3] in a line: Cytotoxicity against human CLS-54 cells assessed as reduction in cell viability at >12.5 uM measured after 48 hrs by resazurin dye based fluorescence assay. The following applies: cls-54, 48 h.
Series [4] concerns Klebsiella pneumoniae. Description: Synergistic antibacterial activity against Klebsiella pneumoniae ATCC 700603 assessed as FIC after 24 hrs in presence of colistin by checkerboard assay relative to colistin. The series is classed as functional.
In another series the test system is Acinetobacter baumannii. The series is described as follows: Antibacterial activity against Acinetobacter baumannii ATCC BAA-1605 at 0.78 to 100 uM after 24 hrs by broth microdilution method. The series is classed as functional, organism-based. The settings on record: dose microM 0.78-100, time 24.0 hrs. On the technique in general: Dilution methods test growth across graded concentrations, often in twofold steps.

Series [5] can be described thus: Selectivity index, ratio of IC50 for cytotoxicity against human THP-1 cells to MIC90 for antibacterial activity against […] Staphylococcus aureus ATCC 700699. The settings on record: read-out: Selectivity Index. The series is classed as toxicity, cell-based.
Series [6] concerns Klebsiella pneumoniae. The series is described as follows: Antibacterial activity against Klebsiella pneumoniae ATCC 700603 after 24 hrs by broth microdilution method. The series is classed as functional.
Series [7] relates to Mycobacterium tuberculosis. The series is described as follows: Antibacterial activity against Mycobacterium tuberculosis H37Rv at 0.78 to 100 uM after 5 days by resazurin dye based fluorescence assay. The series is classed as functional, organism-based. The following applies: dose microM 0.78-100, time 5.0 day.

Consider `Clc1ccc2[nH]cc(-c3cccc(-c4c[nH]c5ccc(Cl)cc45)n3)c2c1`, for which the FIC result with Pseudomonas aeruginosa [1] is listed as “<=0.0625”; with Escherichia coli, 0.064; in the series on Klebsiella pneumoniae [4], 0.125. For the same compound, the outcome in the series with Staphylococcus aureus was inactive. Moreover, the MIC against Pseudomonas aeruginosa [2] and against Klebsiella pneumoniae [6] was above 100 µM throughout. Further, the Activity result (in the series on HEK293; in series [3]) was “Toxic” each time. For the same compound, the result (with Acinetobacter baumannii; in series [7]) was Active. Besides, in series [5], the selectivity ratio turned out to be 32.
